This passage reports IC50 results from patent US11702422B2, “Imidazopyridazines as modulators of IL-17” (Janssen Pharmaceutica NV, priority 2020, dated 2023).

Each structure is given as a SMILES string.

The subject of assay [1] is IL-17A-induced G-CSF production in human normal keratinocyte (NHK). Nature of the assay: NHK Assay: IL-17A-induced G-CSF production in human normal keratinocytes. Type of assay: cell-based. The following applies: 24 h, adult normal human keratinocytes, IL-17A 5 ng/mL, simple average if tested more than once. A digest of the protocol: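 Adult normal human keratinocytes were seeded at 3000-4000 cells/well. Recombinant human IL-17A was pre-incubated 1 h at rt with titrated compound, then added to cells (final 5 ng/mL IL-17A, 0.2% DMSO, 5% FBS) for 24 h at 37° C. Supernatant G-CSF was measured by HTRF against a standard curve to give IC50.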

The target of assay [2] is IL-17A(FLAG-Tagged): IL-17RA(His-Tagged) (Homo sapiens, UniProt Q16552, K93Q). The assay is described as follows: IL-17A(FLAG-Tagged): IL-17RA(His-Tagged) Binding Disruption Eu-HTRF Assay. Conditions: IL-17A/IL-17RA binding disruption, simple average if tested more than once. A digest of the protocol:
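IC50 comes from a one-site competition fit of the HTRF 665/620 nm ratio. Compound dilutions (2-fold, 22 points) were held 1 h rt with FLAG-tagged IL-17A dimer, then His-tagged IL-17RA plus Eu-cryptate anti-FLAG and D2 anti-His antibodies were added for 2 h rt.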
On the technique in general: In TR-FRET formats the signal depends on donor and acceptor labels being close together.

Broadly, the IC50 is the concentration that gives 50% inhibition.

Chain of UniProt Q16552 (Q16552 with tags, fused parts or gaps K93Q): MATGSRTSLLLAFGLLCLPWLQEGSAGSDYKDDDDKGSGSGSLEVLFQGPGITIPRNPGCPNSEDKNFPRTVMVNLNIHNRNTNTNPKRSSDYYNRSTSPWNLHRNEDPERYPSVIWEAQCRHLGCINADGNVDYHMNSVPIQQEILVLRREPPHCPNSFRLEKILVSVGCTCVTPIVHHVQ

As for `CC(C)(F)c1nonc1C(=O)N[C@H](c1cn2ncc([C@H](NC(=O)CCC(F)(F)F)C3CC3)cc2n1)C1CCC(F)(F)CC1` [Example 388, N—((S)-(7-((R)-Cyclopropyl(4,4,4-trifluorobutanamido)methyl)imidazo[1,2-b]pyridazin-2-yl)(4,4-difluorocyclohexyl)methyl)-4-(2-fluoropropan-2-yl)-1,2,5-oxadiazole-3-carboxamide], the IC50 in assay [1] (Homo sapiens, Keratinocyte) was 0.1 µM; in assay [2], 0.085 µM.

With `CC(C)n1nccc1C(=O)N[C@H](c1nc2cc([C@H](NC(=O)CCC(F)(F)F)C3CC3)cnn2c1F)C1CCC(F)(F)CC1` [Example 118, N—((S)-(7-((R)-Cyclopropyl(4,4,4-trifluorobutanamido)methyl)-3-fluoroimidazo[1,2-b]pyridazin-2-yl)(4,4-difluorocyclohexyl)methyl)-1-isopropyl-1H-pyrazole-5-carboxamide], the IC50 in assay [1] (Homo sapiens, Keratinocyte) is 0.37 µM; in assay [2], 0.25 µM.

Consider `N#CC1(C(NC(=O)CC2CC(F)(F)C2)c2cnn3cc([C@@H](NC(=O)c4nonc4OCC(F)F)C4CCC(F)(F)CC4)nc3c2)CC1` (single isomer, unassigned) [Example 425, N—((S)-(7-((S*)-(1-Cyanocyclopropyl)(2-(3,3-difluorocyclobutyl)acetamido)methyl)imidazo[1,2-b]pyridazin-2-yl)(4,4-difluorocyclohexyl)methyl)-4-(2,2-difluoroethoxy)-1,2,5-oxadiazole-3-carboxamide], for which the IC50 worked out at 0.02 µM in assay [1] and 0.099 µM in assay [2].

With `Cc1c(C(=O)N[C@H](c2cn3ncc(C(NC(=O)CCC(F)(F)F)C4CC4)cc3n2)C2CCC(F)(F)CC2)cnn1CCC(F)(F)F` (single isomer, unassigned) [Example 54, N—((S)-(7-((R*)-Cyclopropyl(4,4,4-trifluorobutanamido)methyl)imidazo[1,2-b]pyridazin-2-yl)(4,4-difluorocyclohexyl)methyl)-5-methyl-1-(3,3,3-trifluoropropyl)-1H-pyrazole-4-carboxamide], the IC50 in assay [1] amounted to 0.71 µM; in assay [2], 0.32 µM.

For `O=C(CC1CC(F)(F)C1)N[C@@H](c1cnn2cc([C@@H](NC(=O)[C@@H]3C[C@H]3C(F)(F)F)C3CCC(F)(F)CC3)nc2c1)C1CC1` (relative stereo) [Example 144, (Trans-1R*,2R*)—N—((S)-(7-((R)-Cyclopropyl(2-(3,3-difluorocyclobutyl)acetamido)methyl)imidazo[1,2-b]pyridazin-2-yl)(4,4-difluorocyclohexyl)methyl)-2-(trifluoromethyl)cyclopropane-1-carboxamide], the half-inhibitory concentration (IC50) was determined as 7 µM in assay [1] (Homo sapiens, Keratinocyte) and 1.4 µM in assay [2].

Consider `CC(C)c1scnc1C(=O)N[C@H](c1cn2ncc([C@H](NC(=O)CCC(F)(F)F)C3CC3)cc2n1)C1CCC(F)(F)CC1` [Example 480, N—((S)-(7-((R)-Cyclopropyl(4,4,4-trifluorobutanamido)methyl)imidazo[1,2-b]pyridazin-2-yl)(4,4-difluorocyclohexyl)methyl)-5-isopropylthiazole-4-carboxamide], for which the IC50 in assay [1] (Homo sapiens, Keratinocyte) came out at 0.47 µM; in assay [2], 0.14 µM.

As for `CC1(C)CC1C(=O)N[C@H](c1cn2ncc([C@H](NC(=O)CCC(F)(F)F)C3CC3)cc2n1)C1CCC(F)(F)CC1` (stereo partly drawn) [Example 62, N—((S)-(7-((R)-Cyclopropyl(4,4,4-trifluorobutanamido)methyl)imidazo[1,2-b]pyridazin-2-yl)(4,4-difluorocyclohexyl)methyl)-2,2-dimethylcyclopropane-1-carboxamide], the concentration for half-maximal inhibition (IC50) was roughly 4 µM in assay [1] (Homo sapiens, Keratinocyte) and 0.83 µM in assay [2].

In the case of `Cc1nonc1C(=O)N[C@H](c1cn2ncc(C(NC(=O)CCC(F)(F)F)C(C)C)cc2n1)C1CCC(F)(F)CC1` (single isomer, unassigned) [Example 504, N—((S)-(4,4-Difluorocyclohexyl)(7-((S*)-2-methyl-1-(4,4,4-trifluorobutanamido)propyl)imidazo[1,2-b]pyridazin-2-yl)methyl)-4-methyl-1,2,5-oxadiazole-3-carboxamide], the IC50 in assay [1] amounted to 0.093 µM; in assay [2], 0.046 µM.

`O=C(CCC(F)(F)F)N[C@@H](c1cnn2cc([C@@H](NC(=O)c3ncnn3CCOC(F)F)C3CCC(F)(F)CC3)nc2c1)C1CC1` [Example 55, N—((S)-(7-((R)-Cyclopropyl(4,4,4-trifluorobutanamido)methyl)imidazo[1,2-b]pyridazin-2-yl)(4,4-difluorocyclohexyl)methyl)-1-(2-(difluoromethoxy)ethyl)-1H-1,2,4-triazole-5-carboxamide]: the IC50 turned out to be 0.21 µM in assay [1] (Homo sapiens, Keratinocyte) and 0.1 µM in assay [2].

As to `O=C(CCC(F)(F)F)N[C@@H](c1cnn2cc([C@@H](NC(=O)c3nocc3OCC(F)F)C3CCC(F)(F)CC3)nc2c1)C1CC1` [Example 375, N—((S)-(7-((R)-Cyclopropyl(4,4,4-trifluorobutanamido)methyl)imidazo[1,2-b]pyridazin-2-yl)(4,4-difluorocyclohexyl)methyl)-4-(2,2-difluoroethoxy)isoxazole-3-carboxamide], the IC50 in assay [1] (Homo sapiens, Keratinocyte) came to 0.17 µM; in assay [2], 0.043 µM.

With `O=C(CC1CC(F)(F)C1)NC(c1cnn2cc([C@@H](NC(=O)c3cnn(CCC(F)(F)F)c3)C3CCC(F)(F)CC3)nc2c1)C1CC1` (single isomer, unassigned) [Example 8, N—((S)-(7-((R*)-Cyclopropyl(2-(3,3-difluorocyclobutyl)acetamido)methyl)imidazo[1,2-b]pyridazin-2-yl)(4,4-difluorocyclohexyl)methyl)-1-(3,3,3-trifluoropropyl)-1H-pyrazole-4-carboxamide], the values for the IC50 in assay [1] and in assay [2] were 0.36 µM and 0.22 µM, respectively.

For the compound `O=C(CCC(F)(F)F)N[C@@H](c1cnn2cc([C@@H](NC(=O)c3cccnc3C3CC3)C3CCC(F)(F)CC3)nc2c1)C1CC1` [Example 193, 2-Cyclopropyl-N—((S)-(7-((R)-cyclopropyl(4,4,4-trifluorobutanamido)methyl)imidazo[1,2-b]pyridazin-2-yl)(4,4-difluorocyclohexyl)methyl)nicotinamide], the IC50 in assay [1] (Homo sapiens, Keratinocyte) turned out to be 1.3 µM; in assay [2], 0.5 µM.

For `CCc1nocc1C(=O)N[C@H](c1cn2ncc([C@H](NC(=O)CCC(F)(F)F)C3CC3)cc2n1)C1CCC(F)(F)CC1` [Example 83, N—((S)-(7-((R)-Cyclopropyl(4,4,4-trifluorobutanamido)methyl)imidazo[1,2-b]pyridazin-2-yl)(4,4-difluorocyclohexyl)methyl)-3-ethylisoxazole-4-carboxamide], the IC50 in assay [1] (Homo sapiens, Keratinocyte) was found to be 0.06 µM; in assay [2], 0.033 µM.

Consider `O=C(CCC(F)(F)F)N[C@@H](c1cnn2cc([C@@H](NC(=O)c3cccc(C(F)F)c3)C3CCC(F)(F)CC3)nc2c1)C1CC1` [Example 170, N—((S)-(7-((R)-Cyclopropyl(4,4,4-trifluorobutanamido)methyl)imidazo[1,2-b]pyridazin-2-yl)(4,4-difluorocyclohexyl)methyl)-3-(difluoromethyl)benzamide], for which the half-maximal inhibitory concentration (IC50) in assay [1] (Homo sapiens, Keratinocyte) was found to be 0.22 µM; in assay [2], 0.041 µM.

Regarding `Cc1nonc1C(=O)N[C@H](c1cn2ncc([C@H](NC(=O)CC3CC(F)(F)C3(F)F)C3CC3)cc2n1)C1CCC(F)(F)CC1` (single isomer, unassigned) [Example 324, N—((S)-(7-((R)-Cyclopropyl(2-((R*)-2,2,3,3-tetrafluorocyclobutyl)acetamido)methyl)imidazo[1,2-b]pyridazin-2-yl)(4,4-difluorocyclohexyl)methyl)-4-methyl-1,2,5-oxadiazole-3-carboxamide], the IC50 was 0.3 µM in assay [1] (Homo sapiens, Keratinocyte) and 0.061 µM in assay [2].

Regarding `COc1cccc(C(=O)N[C@H](c2cn3ncc([C@H](NC(=O)CCC(F)(F)F)C4CC4)cc3n2)C2CCC(F)(F)CC2)n1` [Example 226, N—((S)-(7-((R)-Cyclopropyl(4,4,4-trifluorobutanamido)methyl)imidazo[1,2-b]pyridazin-2-yl)(4,4-difluorocyclohexyl)methyl)-6-methoxypicolinamide], the IC50 is greater than 20 µM in assay [1] (Homo sapiens, Keratinocyte) and 2.5 µM in assay [2].

For `[2H]C([2H])([2H])n1nccc1C(=O)N[C@H](c1cn2ncc([C@H](NC(=O)CC3CC(F)(F)C3)C3CC3)cc2n1)C1CCC(F)(F)CC1` [Example 489, N—((S)-(7-((R)-Cyclopropyl(2-(3,3-difluorocyclobutyl)acetamido)methyl)imidazo[1,2-b]pyridazin-2-yl)(4,4-difluorocyclohexyl)methyl)-1-(methyl-d3)-1H-pyrazole-5-carboxamide], the IC50 stood at 0.14 µM in assay [1] (Homo sapiens, Keratinocyte) and 0.054 µM in assay [2].

For the compound `[2H]C([2H])([2H])C([2H])([2H])n1nccc1C(=O)N[C@H](c1cn2ncc([C@H](NC(=O)CCC(F)F)C3CC3)cc2n1)C1CCC(F)(F)CC1` [Example 282, N—((S)-(7-((R)-Cyclopropyl(4,4-difluorobutanamido)methyl)imidazo[1,2-b]pyridazin-2-yl)(4,4-difluorocyclohexyl)methyl)-1-(ethyl-d5)-1H-pyrazole-5-carboxamide], the IC50 in assay [1] (Homo sapiens, Keratinocyte) was determined as 0.42 µM; in assay [2], 0.16 µM.

With `Cc1c(C(=O)N[C@H](c2cn3ncc(C(NC(=O)CC4CC(F)(F)C4)C4CC4)cc3n2)C2CCC(F)(F)CC2)cnn1CCC(F)(F)F` (single isomer, unassigned) [Example 52, N—((S)-(7-((R*)-Cyclopropyl(2-(3,3-difluorocyclobutyl)acetamido)methyl)imidazo[1,2-b]pyridazin-2-yl)(4,4-difluorocyclohexyl)methyl)-5-methyl-1-(3,3,3-trifluoropropyl)-1H-pyrazole-4-carboxamide], the IC50 came to 0.67 µM in assay [1] and 0.28 µM in assay [2].
